41 compounds from patent US11046691B1 (IDEAYA BIOSCIENCES, INC., priority 2018, dated 2021) can be followed below.

pIC50: −log10 of the molar value.

Chain of hMAT2A (P31153 whole entry): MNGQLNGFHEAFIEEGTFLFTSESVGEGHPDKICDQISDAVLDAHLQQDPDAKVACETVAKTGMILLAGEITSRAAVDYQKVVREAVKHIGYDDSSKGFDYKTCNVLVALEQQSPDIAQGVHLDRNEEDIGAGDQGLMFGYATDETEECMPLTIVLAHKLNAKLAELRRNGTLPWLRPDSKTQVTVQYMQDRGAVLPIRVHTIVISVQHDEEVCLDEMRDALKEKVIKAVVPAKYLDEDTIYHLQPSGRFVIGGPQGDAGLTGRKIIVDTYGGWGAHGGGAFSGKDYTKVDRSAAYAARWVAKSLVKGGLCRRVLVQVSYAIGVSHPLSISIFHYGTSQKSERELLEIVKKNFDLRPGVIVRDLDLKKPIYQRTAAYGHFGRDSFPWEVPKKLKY

One assay has as its target hMAT2A (Homo sapiens (Human), UniProt P31153). Nature of the assay: Phosphate Sensor Fluorescence Assay (MAT2A enzyme inhibition). The conditions noted are these: L-methionine 500 uM, ATP 500 uM, class symbols. Type of assay: biochemical. An outline of the steps: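 Recombinant MAT2A preincubated 15 min at room temperature with compound, then reacted 1 h at room temperature with 500 uM L-methionine and 500 uM ATP in Tris pH 7.5 buffer containing PNP/7-MEG.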
As to `O=c1nc(NC2CC3(C2)CS(=O)(=O)C3)c2ccc(C(F)(F)F)nc2n1-c1ccccc1Cl` [Example 316, 1-(2-chlorophenyl)-4-((2,2-dioxido-2-thiaspiro[3.3]heptan-6-yl)amino)-7-(trifluoromethyl)pyrido[2,3-d]pyrimidin-2(1H)-one], the pIC50 is 6.30 to 6.70. On the same count and under the same terms, next, `COCCNc1nc(=O)n(-c2ccccc2Cl)c2nc(C(F)(F)F)ccc12` [Example 317, 1-(2-chlorophenyl)-4-[(2-methoxyethyl)-amino]-7-(trifluoromethyl)pyrido[2,3-d]-pyrimidin-2(1H)-one]: more than 6.70. `N#C[C@H]1C[C@@H](Nc2nc(=O)n(-c3ccccc3Cl)c3nc(C(F)(F)F)ccc23)C1` [Example 318, (1s,3s)-3-((1-(2-chlorophenyl)-2-oxo-7-(trifluoromethyl)-1,2-dihydropyrido[2,3-d]pyrimidin-4-yl)amino)cyclobutane-1-carbonitrile]: the pIC50 is more than 6.70. In turn, `CC1(Nc2nc(=O)n(-c3ccccc3Cl)c3nc(C(F)(F)F)ccc23)CCC1` [Example 319] showed a negative logarithm of the IC50 (pIC50) of more than 6.70.

`O=c1nc(NC2CCC2)c2ccc(C(F)(F)F)nc2n1-c1ccccc1Cl` [Example 320, 1-(2-chlorophenyl)-4-(cyclobutylamino)-7-(trifluoromethyl)pyrido[2,3-d]-pyrimidin-2(1H)-one] had a pIC50 of more than 6.70. Regarding `O=c1nc(N[C@H]2C[C@@H](O)C2)c2ccc(C(F)(F)F)nc2n1-c1ccccc1Cl` [Example 321], the pIC50 is more than 6.70. `O=c1nc(NC2(CO)CC2)c2ccc(C(F)(F)F)nc2n1-c1ccccc1Cl` [Example 322, 1-(2-chlorophenyl)-4-{[(hydroxy-methyl)cyclopropyl]amino}-7-(trifluoro-methyl)-pyrido[2,3-d]pyrimidin-2(1H)-one] had a pIC50 of more than 6.70. `O=c1nc(NCC(F)F)c2ccc(C(F)(F)F)cc2n1-c1cccnc1` [Example 325, 4-[(2,2-difluoroethyl)amino]-1-(pyridin-3-yl)-7-(trifluoromethyl)hydro-quinazolin-2-one] had a pIC50 of more than 6.70.

Compound `Nc1nc(=O)n(-c2cccnc2)c2cc(C(F)(F)F)ccc12` [Example 327, 4-amino-1-(pyridin-3-yl)-7-(trifluoro-methyl)hydroquinazolin-2-one] showed a negative logarithm of the IC50 (pIC50) of more than 6.70. Take `CNc1nc(=O)n(-c2ccc3[nH]ncc3c2)c2cc(Cl)ccc12` [Example 328, 1-(1H-indazol-5-yl)-7-chloro-4-(methyl-amino)hydroquinazolin-2-one]: the pIC50 was more than 6.70. Consider `CNc1nc(=O)n(-c2ccccc2C)c2cc(Cl)cc(OC)c12` [Example 329, 7-chloro-5-methoxy-4-(methylamino)-1-(2-methylphenyl)hydroquinazolin-2-one], for which the pIC50 is more than 6.70. `CNc1nc(=O)n(-c2cccc(O)c2F)c2cc(Cl)ccc12` [Example 333, 7-chloro-1-(2-fluoro-3-hydroxyphenyl)-4-(methylamino)quinazolin-2(1H)-one]: the pIC50 was more than 6.70. `O=c1nc(N[C@H]2C[C@H](O)C2)c2ccc(C(F)(F)F)nc2n1-c1ccccc1Cl` [Example 334, 1-(2-chlorophenyl)-4-(((1r,3r)-3-hydroxycyc1obutyl)amino)-7-(trifluoro-methyl)pyrido[2,3-d]pyrimidin-2(1H)-one] showed a pIC50 of more than 6.70. The same measure, in the same setting: to `[2H]C([2H])([2H])N(c1nc(=O)n(-c2ccccc2Cl)c2nc(C(F)(F)F)ccc12)C([2H])([2H])[2H]` [Example 339, 4-(bis(methyl-d3)amino)-1-(2-chloro-phenyl)-7-(trifluoromethyl)-pyrido[2,3-d]pyrimidin-2(1H)-one] belongs more than 6.70; to `O=c1[nH]c(=O)n(-c2ccc3[nH]cnc3c2)c2cc(Cl)ccc12` [Example 340, 1-(1H-benzo[d]imidazol-5-yl)-7-chloro-quinazoline-2,4(1H,3H)-dione], 6.30 to 6.70; to `CNc1nc(=O)n(-c2cccnc2)c2cc(C(F)(F)F)ccc12` [Example 341, 4-(methylamino)-1-(pyridin-3-yl)-7-(trifluoromethyl)hydroquinazolin-2-one], more than 6.70.

Take `C[C@@H]1CCCN1c1nc(=O)n(-c2ccccc2)c2nc(C(F)(F)F)ccc12` [Example 344, 4-((2R)-2-methylpyrrolidin-1-yl)-1-phenyl-7-(trifluoromethyl)pyrido[2,3-d]-pyrimidin-2(1H)-one]: the pIC50 was more than 6.70. With `C[C@H]1CCCN1c1nc(=O)n(-c2ccccc2)c2nc(C(F)(F)F)ccc12` [Example 345, 4-((2S)-2-methylpyrrolidin-1-yl)-1-phenyl-7-(trifluoromethyl)pyrido[2,3-d]-pyrimidin-2(1H)-one], the pIC50 was more than 6.70. On the same count and under the same terms, next, `O=c1nc(N2CCSC2)c2ccc(C(F)(F)F)nc2n1-c1ccccc1` [Example 346, 1-phenyl-4-(1,3-thiazolidin-3-yl)-7-(trifluoromethyl) pyrido[2,3-d]-pyrimidin-2(1H)-one]: more than 6.70; `[2H]C([2H])([2H])Nc1nc(=O)n(-c2ccccc2Cl)c2cc(Cl)ccc12` [Example 347, 7-chloro-1-(2-chlorophenyl)-4-((methyl-d3)amino)quinazolin-2(1H)-one]: more than 6.70.

Consider `CNc1nc(=O)n(-c2ccccc2)c2cc(Cl)cc(OCC3CC3)c12` [Example 348, 7-chloro-5-(cyclopropylmethoxy)-4-(methylamino)-1-phenylhydro-quinazolin-2-one], for which the pIC50 was more than 6.70. Still for that read-out and setting: next, `CNc1nc(=O)n(-c2ccccc2)c2cc(Cl)cc(OCC(F)(F)F)c12` [Example 350, 7-chloro-4-(methylamino)-1-phenyl-5-(2,2,2-trifluoroethoxy)hydroquinazolin-2-one]: more than 6.70; `CNc1nc(=O)n(-c2ccccc2Br)c2cc(C3CC3)ccc12` [Example 351, 1-(2-bromophenyl)-7-cyclopropyl-4-(methylamino)hydroquinazolin-2-one]: more than 6.70. For `CNc1nc(=O)n(-c2ccccc2C)c2cc(C3CC3)ccc12` [Example 352, 7-cyclopropyl-4-(methylamino)-1-(2-methylphenyl)hydroquinazolin-2-one], the pIC50 was more than 6.70. `CNc1nc(=O)n(-c2cccc(C3CC3)c2)c2cc(Cl)ccc12` [Example 353, 7-chloro-1-(3-cyclopropylphenyl)-4-(methylamino)hydroquinazolin-2-one] gave a pIC50 of more than 6.70.

Turning to `CNc1nc(=O)n(-c2cccc(C(F)F)c2)c2cc(Cl)ccc12` [Example 355], the pIC50 was more than 6.70. For the compound `O=c1nc(O)c2ccc(Cl)cc2n1-c1ccc2[nH]ncc2c1` [Example 357, 1-(1H-indazol-5-yl)-7-chloro-4-hydroxy-hydroquinazolin-2-one], the pIC50 is 5.00 to 6.00. In turn, `O=c1[nH]c(=O)n(-c2cnccc2Cl)c2nc(C(F)(F)F)ccc12` [Example 358, 1-(4-chloropyridin-3-yl)-7-(trifluoro-methyl)pyrido[2,3-d]pyrimidine-2,4(1H,3H)-dione] gave a pIC50 of more than 6.70. `O=c1[nH]c(=O)n(-c2cccnc2)c2nc(C(F)(F)F)ccc12` [Example 359, 1-(pyridin-3-yl)-7-(trifluoromethyl)-pyrido[2,3-d]pyrimidine-2,4(1H,3H)-dione] had a pIC50 of more than 6.70.

On to `O=c1[nH]c(=O)n(-c2cccnc2)c2cc(C(F)(F)F)ccc12` [Example 362, 1-(pyridin-3-yl)-7-(trifluoromethyl)-1,3-dihydroquinazoline-2,4-dione], for which the pIC50 is more than 6.70. On to `O=c1[nH]c(=O)n(-c2cccc3ncsc23)c2nc(C(F)(F)F)ccc12` [Example 363, 1-benzothiazol-7-yl-7-(trifluoromethyl)-pyrido[2,3-d]pyrimidine-2,4(1H,3H)-dione], for which the pIC50 was more than 6.70.

Compound `Cc1ncccc1-n1c(=O)[nH]c(=O)c2ccc(C(F)(F)F)nc21` [Example 364, 1-(2-methylpyridin-3-yl)-7-(trifluoro-methyl)pyrido[2,3-d]pyrimidine-2,4(1H,3H)-dione] had a pIC50 of more than 6.70. The compound `Cc1ccncc1-n1c(=O)[nH]c(=O)c2ccc(C(F)(F)F)nc21` [Example 365, 1-(4-methylpyridin-3-yl)-7-(trifluoro-methyl)pyrido[2,3-d]pyrimidine-2,4(1H,3H)-dione] showed a pIC50 of more than 6.70. Consider `[2H]C([2H])([2H])Nc1nc(=O)n(-c2ccccc2)c2nc(C(F)(F)F)ccc12` [Example 366, 4-((methyl-d3)amino)-1-phenyl-7-(trifluoromethyl)pyrido[2,3-d]pyrimidin-2(1H)-one], for which the pIC50 was more than 6.70.

With `[2H]C([2H])([2H])Nc1nc(=O)n(-c2ccccc2C)c2cc(C(F)(F)F)ccc12` [Example 367, 4-((methyl-d3)amino)-1-(o-tolyl)-7-(trifluoromethyl)quinazolin-2(1H)-one], the pIC50 is more than 6.70.

Staying with this assay, now noted: L-methionine 500 uM, ATP 500 uM, numeric bound.
As to `CNc1nc(=O)n(-c2ccccc2Cl)c2c(Cl)c(C(F)(F)F)ccc12` [Example 342, 8-chloro-1-(2-chlorophenyl)-4-(methylamino)-7-(trifluoromethyl)-hydroquinazolin-2-one], the pIC50 is less than 5.00. On the same count and under the same terms, next, `CNc1nc(=O)n(-c2ccccc2)c2c(Cl)c(C(F)(F)F)ccc12` [Example 343, 8-chloro-4-(methylamino)-1-phenyl-7-(trifluoromethyl)hydroquinazolin-2-one]: less than 5.00; `CNc1nc(=O)n(-c2ccccc2)c2cc(Cl)cc(OC(C)C)c12` [Example 349, 7-chloro-4-(methylamino)-5-(methyl-ethoxy)-1-phenylhydroquinazolin-2-one]: less than 5.00; `O=c1[nH]c(=O)n(-c2cccc(C(F)F)c2)c2cc(Cl)ccc12` [Example 354, 7-chloro-1-(3-difluoromethylphenyl)-quinazoline-2,4(1H,3H)-dione]: less than 5.00. The compound `O=c1[nH]c(=O)n(-c2ccccc2Cl)c2c(Cl)c(C(F)(F)F)ccc12` [Example 360, 8-chloro-1-(2-chlorophenyl)-7-(trifluoro-methyl)pyrido[2,3-d]pyrimidine-2,4(1H,3H)-dione-1] gave a pIC50 of less than 5.00. The same measure, in the same setting: to `O=c1[nH]c(=O)n(-c2ccccc2)c2c(Cl)c(C(F)(F)F)ccc12` [Example 361] belongs less than 5.00.
